Source: PubChem BioAssay (NCI)
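Tested at 5 concentrations; 48 h exposure; 96-well plates; endpoints linearly interpolated, else capped at highest concentration. At the TGI there is no net growth.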

Columns and labels:
Assay in all cases: NCI tumour cell line growth inhibition, 48 h
RXF-631 renal = tested on: RXF-631 renal
P388 leukemia = tested on: P388 leukemia
BT-549 breast = tested on: BT-549 breast
MDA-MB-231 breast = tested on: MDA-MB-231 breast
PC-3 prostate = tested on: PC-3 prostate
DU-145 prostate = tested on: DU-145 prostate
T-47D breast = tested on: T-47D breast
MDA-MB-435 = tested on: MDA-MB-435
HS 578T breast = tested on: HS 578T breast
MDA-N = tested on: MDA-N
SR leukemia = tested on: SR leukemia

`COc1ccc(/C(Cl)=C(\C=O)c2ccc(OC)c(OC)c2)cc1` gave a TGI (RXF-631 renal) greater than 100 µM.

With `COc1cc(N=Nc2cccc(S(=O)(=O)O)c2)ccc1N=Nc1ccc(/C=C/c2ccc(-n3on3-c3ccc(/C=C/c4ccc(N=Nc5ccc(N=Nc6cccc(S(=O)(=O)O)c6)cc5OC)cc4S(=O)(=O)O)c(S(=O)(=O)O)c3)cc2S(=O)(=O)O)c(S(=O)(=O)O)c1` the TGI (P388 leukemia) was greater than 100 µM.

In the case of `N#CC(OC1OC(COC2OC(CO)C(O)C(O)C2O)C(O)C(O)C1O)c1ccccc1` (configuration not stated), the TGI (P388 leukemia) is reported as greater than 225 µM.

`CCOP(=O)(COCCn1ncc(=O)[nH]c1=O)OCC` was tested, and the TGI (BT-549 breast) was greater than 100 µM, the TGI (MDA-MB-231 breast) was greater than 100 µM and the TGI (PC-3 prostate) was greater than 100 µM. For the same molecule, the TGI (DU-145 prostate) was greater than 100 µM, the TGI (T-47D breast) was greater than 100 µM and the TGI (MDA-MB-435) was greater than 100 µM. For the same molecule, the TGI (HS 578T breast) was greater than 100 µM, the TGI (MDA-N) was greater than 100 µM and the TGI (SR leukemia) was greater than 100 µM.
